Reference: patent publication US4248887A, “Antibacterial compounds, processes for their preparation and compositions containing them” (priority 1978, dated 1981)
Values after ≈ are worked out from the molar mass of the structure shown.

Key:
[1] = test system: Staph. aureus Oxford; assay: MIC by serial dilution in nutrient agar (human bacteria); details: Staphylococcus aureus
[2] = test system: Strep. agalactiae SPA1; assay: MIC against veterinary bacteria; details: Streptococcus agalactiae
[3] = test system: M. alkalescens NCTC 10135; assay: Anti-mycoplasma MIC; assay type: cell-based
[4] = test system: H. influenzae Wy21; assay: MIC by serial dilution in nutrient agar (human bacteria); details: Haemophilus influenzae
[5] = test system: M. bovis NCTC 10131; assay: microbe, parasite or virus in culture; assay type: cell-based; details: NCTC10131
[6] = test system: Strep. dysgalactiae SPD1; assay: MIC against veterinary bacteria; details: Streptococcus dysgalactiae
[7] = test system: M. synoviae ATCC 25204; assay: Anti-mycoplasma MIC; assay type: cell-based; details: Mycoplasmopsis synoviae, ATCC25204
[8] = test system: M. fermentans MWKL4; assay: Anti-mycoplasma MIC; assay type: cell-based; details: Mycoplasmopsis fermentans
[9] = test system: Staph. aureus B4 (pen resistant); assay: MIC against veterinary bacteria; details: Staphylococcus aureus
[10] = test system: M. pulmonis JB; assay: Anti-mycoplasma MIC; assay type: cell-based; details: Mycoplasmopsis pulmonis
[11] = test system: Strep. pyogenes C 2761; assay: MIC by serial dilution in nutrient agar (human bacteria); details: Streptococcus pyogenes, C2761
[12] = test system: Past. multocida PA2; assay: MIC against veterinary bacteria; details: Pasteurella multocida
[13] = test system: M. suipneumoniae J2206/183b; assay: Anti-mycoplasma MIC; assay type: cell-based; details: Mesomycoplasma hyopneumoniae, J2206/183B
[14] = test system: Strep. uberis SPU1; assay: MIC against veterinary bacteria; details: Streptococcus uberis
[15] = test system: Bord. bronchiseptica BO8; assay: MIC against veterinary bacteria; details: Bordetella bronchiseptica
[16] = test system: M. pneumoniae 427a; assay: Anti-mycoplasma MIC; assay type: cell-based; details: Mycoplasmoides pneumoniae
[17] = test system: M. suipneumoniae Str. 11; assay: Anti-mycoplasma MIC; assay type: cell-based; details: Mesomycoplasma hyopneumoniae, STR.11
[18] = test system: Strep. pneumoniae CN33; assay: MIC by serial dilution in nutrient agar (human bacteria); details: Streptococcus pneumoniae
[19] = test system: Past. multocida 1633; assay: as above; details: Pasteurella multocida
[20] = test system: Staph. aureus Russell; assay: as above; details: Staphylococcus aureus
[21] = test system: H. influenzae Q1; assay: as above; details: Haemophilus influenzae
[22] = test system: M. pneumoniae ATCC 15492; assay: Anti-mycoplasma MIC; assay type: cell-based; details: Mycoplasmoides pneumoniae, ATCC15492, M. pneumoniae ATCC 15492
[23] = test system: M. gallisepticum S6; assay: Anti-mycoplasma MIC; assay type: cell-based; details: Mycoplasmoides gallisepticum, S6
[24] = test system: M. hyorhinis ATCC 23234; assay: Anti-mycoplasma MIC; assay type: cell-based; details: Mesomycoplasma hyorhinis, ATCC23234
[25] = test system: M. dispar H225; assay: Anti-mycoplasma MIC; assay type: cell-based
[26] = test system: M. bovigenitalium ATCC 14173; assay: Anti-mycoplasma MIC; assay type: cell-based
[27] = test system: M. arthritidis ATCC 14124; assay: Anti-mycoplasma MIC; assay type: cell-based
[28] = test system: B. subtilis; assay: MIC by serial dilution in nutrient agar (human bacteria); details: Bacillus subtilis
[29] = test system: M. hyosynoviae ATCC 25591; assay: Anti-mycoplasma MIC; assay type: cell-based
[30] = test system: Strep. pyogenes B 2788; assay: MIC by serial dilution in nutrient agar (human bacteria); details: Streptococcus pyogenes, B2788
[31] = test system: M. bovis ATCC 25025; assay: microbe, parasite or virus in culture; assay type: cell-based; details: ATCC25025
[32] = test system: N. catarrhalis 1502; assay: MIC by serial dilution in nutrient agar (human bacteria); details: Neisseria
[33] = test system: Past. haemolytica PA5; assay: MIC against veterinary bacteria; details: Mannheimia haemolytica
[34] = test system: Past. multocida PA1; assay: MIC against veterinary bacteria; details: Pasteurella multocida
[35] = test system: Staph. aureus 1517; assay: MIC by serial dilution in nutrient agar (human bacteria); assay type: cell-based; details: Staphylococcus aureus
[36] = test system: Strep. pyogenes A 64/848; assay: as above; details: Streptococcus pyogenes, A64/848
[37] = test system: M. dispar NCTC 10125; assay: Anti-mycoplasma MIC; assay type: cell-based
[38] = test system: Bord. bronchiseptica BO9; assay: MIC against veterinary bacteria; details: Bordetella bronchiseptica
[39] = Agar (serial dilution in Friis' agar)
[40] = Broth (Friis' broth, microtiter method)

CCOC(=O)/C=C(\C)CC1OCC(C/C=C/C(C)C(C)O)C(O)C1O (stereo not drawn) [Ethyl, Ethyl Monate C]
MIC [1]: 0.2 mg/L (≈ 0.561 µM) | MIC [2]: 20 mg/L (≈ 56.1 µM) | MIC [3]: 0.039 mg/L (≈ 0.109 µM) | MIC [4]: 1 mg/L (≈ 2.81 µM) | MIC [5]: 0.156 mg/L (≈ 0.438 µM) | MIC [6]: 20 mg/L (≈ 56.1 µM) | MIC [7]: 0.039 mg/L (≈ 0.109 µM) | MIC [8, 39]: 0.312 mg/L (≈ 0.875 µM) | MIC [8, 40]: 0.156 mg/L (≈ 0.438 µM) | MIC [9]: 1.25 mg/L (≈ 3.51 µM) | MIC [10, 39]: 0.039 mg/L (≈ 0.109 µM) | MIC [10, 40]: 0.156 mg/L (≈ 0.438 µM) | MIC [11]: 5 mg/L (≈ 14 µM) | MIC [12]: 5 mg/L (≈ 14 µM) | MIC [13]: 10 mg/L (≈ 28.1 µM) | MIC [14]: 5 mg/L (≈ 14 µM) | MIC [15]: > 80 mg/L | MIC [16, 39]: 5 mg/L (≈ 14 µM) | MIC [16, 40]: 10 mg/L (≈ 28.1 µM) | MIC [17]: 1.25 mg/L (≈ 3.51 µM) | MIC [18]: 2.5 mg/L (≈ 7.01 µM) | MIC [19]: 5 mg/L (≈ 14 µM) | MIC [20]: 0.2 mg/L (≈ 0.561 µM) | MIC [21]: 0.2 mg/L (≈ 0.561 µM) | MIC [22, 39]: 5 mg/L (≈ 14 µM) | MIC [22, 40]: 10 mg/L (≈ 28.1 µM) | MIC [23]: > 10 mg/L | MIC [24]: 2.5 mg/L (≈ 7.01 µM) | MIC [25]: 0.078 mg/L (≈ 0.219 µM) | MIC [26]: 0.078 mg/L (≈ 0.219 µM) | MIC [27]: > 10 mg/L | MIC [28]: 1 mg/L (≈ 2.81 µM) | MIC [29]: 1.25 mg/L (≈ 3.51 µM) | MIC [30]: 0.5 mg/L (≈ 1.4 µM) | MIC [31]: 0.156 mg/L (≈ 0.438 µM) | MIC [32]: 0.2 mg/L (≈ 0.561 µM) | MIC [33]: 40 mg/L (≈ 112 µM) | MIC [34]: 5 mg/L (≈ 14 µM) | MIC [35]: 0.2 mg/L (≈ 0.561 µM) | MIC [36]: 10 mg/L (≈ 28.1 µM) | MIC [37]: 0.156 mg/L (≈ 0.438 µM) | MIC [38]: 40 mg/L (≈ 112 µM)
